In ChEMBL document CHEMBL4765237, “Structural optimization and structure-activity relationship studies of N-phenyl-7,8-dihydro-6H-pyrimido[5,4-b][1,4]oxazin-4-amine derivatives as a new class of inhibitors of RET and its drug resistance mutants” (Eur J Med Chem, 2018):
Calls of active or inactive are those of the source. No cut-off for these calls is given here.

Key:
[1] = Growth inhibition of human H4 cells incubated for 3 days by MTT assay; format: functional; conditions: H4, 72 h, time 3 day
[2] = biological target: TRAF2 and NCK-interacting protein kinase (Homo sapiens, UniProt Q9UKE5); assay: Inhibition of human TNIK (1 to 367 residues) using RLGRDKYKTLRQIRQ as substrate incubated for 40 mins in presence of [gamma33P]ATP by scintillation counting based radiometry assay
[3] = Growth inhibition of […] NIH3T3 cells harboring RET C634Y mutant incubated for 3 days by MTT assay; format: functional; conditions: NIH3T3, 72 h; time 3 day
[4] = biological target: Tyrosine-protein kinase receptor UFO (Homo sapiens, UniProt P30530); assay: Inhibition of recombinant human Axl (473 to end residues) using KKSRGDYMTMQIG as substrate incubated for 40 mins in presence of [gamma-33ATP] by scintillation counting based radiometry assay
Sequence of Tyrosine-protein kinase receptor UFO (P30530 whole entry, the tested form may be a part): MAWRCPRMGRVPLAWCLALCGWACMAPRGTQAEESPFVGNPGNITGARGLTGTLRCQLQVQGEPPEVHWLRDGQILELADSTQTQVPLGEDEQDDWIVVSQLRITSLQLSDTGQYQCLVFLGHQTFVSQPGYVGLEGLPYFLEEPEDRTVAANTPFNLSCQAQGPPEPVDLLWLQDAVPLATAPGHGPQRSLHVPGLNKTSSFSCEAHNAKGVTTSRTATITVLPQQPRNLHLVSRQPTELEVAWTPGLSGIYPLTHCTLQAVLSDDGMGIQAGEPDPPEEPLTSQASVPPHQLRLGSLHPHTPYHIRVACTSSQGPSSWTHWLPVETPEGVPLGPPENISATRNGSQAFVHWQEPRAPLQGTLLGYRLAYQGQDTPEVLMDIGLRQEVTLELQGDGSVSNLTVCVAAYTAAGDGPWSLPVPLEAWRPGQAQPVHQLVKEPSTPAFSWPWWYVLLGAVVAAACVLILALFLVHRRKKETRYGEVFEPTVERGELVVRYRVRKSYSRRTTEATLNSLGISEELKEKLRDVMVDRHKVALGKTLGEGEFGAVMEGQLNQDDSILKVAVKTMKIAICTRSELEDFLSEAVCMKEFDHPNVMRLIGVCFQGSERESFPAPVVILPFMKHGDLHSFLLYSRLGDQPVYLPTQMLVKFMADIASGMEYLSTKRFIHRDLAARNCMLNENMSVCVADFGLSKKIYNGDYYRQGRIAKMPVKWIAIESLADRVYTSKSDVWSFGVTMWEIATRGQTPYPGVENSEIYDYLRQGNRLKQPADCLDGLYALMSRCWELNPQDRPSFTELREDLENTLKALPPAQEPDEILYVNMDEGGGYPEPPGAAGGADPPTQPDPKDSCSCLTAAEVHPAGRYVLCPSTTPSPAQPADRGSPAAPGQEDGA

[5] = biological target: Tyrosine-protein kinase Mer (Homo sapiens, UniProt Q12866); assay: Inhibition of recombinant human MER (557 to 882 residues) using KKLNRTLSFAEPG as substrate incubated for 40 mins in presence of [gamma-33ATP by scintillation counting based radiometry assay
Sequence of Tyrosine-protein kinase Mer (Q12866 whole entry, the tested form may be a part): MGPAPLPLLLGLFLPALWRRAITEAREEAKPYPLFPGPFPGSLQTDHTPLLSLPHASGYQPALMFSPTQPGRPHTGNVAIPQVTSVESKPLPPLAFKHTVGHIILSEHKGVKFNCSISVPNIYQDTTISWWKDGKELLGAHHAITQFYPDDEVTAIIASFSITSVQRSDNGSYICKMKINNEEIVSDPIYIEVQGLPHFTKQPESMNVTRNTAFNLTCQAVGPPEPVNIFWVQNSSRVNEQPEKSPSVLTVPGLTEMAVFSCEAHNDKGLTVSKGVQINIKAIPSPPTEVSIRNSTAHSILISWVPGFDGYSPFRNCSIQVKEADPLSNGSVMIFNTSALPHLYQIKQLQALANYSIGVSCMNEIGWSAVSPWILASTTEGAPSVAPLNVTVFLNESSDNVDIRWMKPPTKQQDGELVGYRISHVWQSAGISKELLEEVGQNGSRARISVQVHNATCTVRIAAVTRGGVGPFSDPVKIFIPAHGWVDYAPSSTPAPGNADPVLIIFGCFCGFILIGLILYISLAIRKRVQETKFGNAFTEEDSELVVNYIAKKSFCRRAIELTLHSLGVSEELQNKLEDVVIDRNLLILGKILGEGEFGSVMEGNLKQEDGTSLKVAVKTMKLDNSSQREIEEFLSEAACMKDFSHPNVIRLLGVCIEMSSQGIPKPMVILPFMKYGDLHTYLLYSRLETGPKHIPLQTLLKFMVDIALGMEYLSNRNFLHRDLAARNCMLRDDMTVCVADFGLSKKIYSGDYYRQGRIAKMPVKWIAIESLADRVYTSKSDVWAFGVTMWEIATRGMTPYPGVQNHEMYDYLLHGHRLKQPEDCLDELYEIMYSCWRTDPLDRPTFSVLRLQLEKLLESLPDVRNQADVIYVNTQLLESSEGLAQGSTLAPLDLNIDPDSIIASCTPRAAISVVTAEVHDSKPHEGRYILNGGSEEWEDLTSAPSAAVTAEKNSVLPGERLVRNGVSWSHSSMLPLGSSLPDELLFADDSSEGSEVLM

[6] = biological target: Macrophage-stimulating protein receptor (Homo sapiens, UniProt Q04912); assay: Inhibition of recombinant human Ron (983 to end residues) using GGMEDIYFEFMGGKKK as substrate incubated for 40 mins in presence of [gamma33P]ATP by scintillation counting based radiometry assay
[7] = biological target: Serine/threonine-protein kinase WNK3 (Homo sapiens, UniProt Q9BYP7); assay: Inhibition of recombinant human WNK3 (1 to 434 residues) using myelin basic protein as substrate incubated for 40 mins in presence of [gamma33P]ATP by scintillation counting based radiometry assay
[8] = biological target: Mitogen-activated protein kinase kinase kinase 20 (Homo sapiens, UniProt Q9NYL2); assay: Inhibition of recombinant full-length human ZAK using MBP as substrate incubated for 40 mins in presence of [gamma33P]ATP by scintillation counting based radiometry assay
Sequence of Mitogen-activated protein kinase kinase kinase 20 (Q9NYL2 whole entry): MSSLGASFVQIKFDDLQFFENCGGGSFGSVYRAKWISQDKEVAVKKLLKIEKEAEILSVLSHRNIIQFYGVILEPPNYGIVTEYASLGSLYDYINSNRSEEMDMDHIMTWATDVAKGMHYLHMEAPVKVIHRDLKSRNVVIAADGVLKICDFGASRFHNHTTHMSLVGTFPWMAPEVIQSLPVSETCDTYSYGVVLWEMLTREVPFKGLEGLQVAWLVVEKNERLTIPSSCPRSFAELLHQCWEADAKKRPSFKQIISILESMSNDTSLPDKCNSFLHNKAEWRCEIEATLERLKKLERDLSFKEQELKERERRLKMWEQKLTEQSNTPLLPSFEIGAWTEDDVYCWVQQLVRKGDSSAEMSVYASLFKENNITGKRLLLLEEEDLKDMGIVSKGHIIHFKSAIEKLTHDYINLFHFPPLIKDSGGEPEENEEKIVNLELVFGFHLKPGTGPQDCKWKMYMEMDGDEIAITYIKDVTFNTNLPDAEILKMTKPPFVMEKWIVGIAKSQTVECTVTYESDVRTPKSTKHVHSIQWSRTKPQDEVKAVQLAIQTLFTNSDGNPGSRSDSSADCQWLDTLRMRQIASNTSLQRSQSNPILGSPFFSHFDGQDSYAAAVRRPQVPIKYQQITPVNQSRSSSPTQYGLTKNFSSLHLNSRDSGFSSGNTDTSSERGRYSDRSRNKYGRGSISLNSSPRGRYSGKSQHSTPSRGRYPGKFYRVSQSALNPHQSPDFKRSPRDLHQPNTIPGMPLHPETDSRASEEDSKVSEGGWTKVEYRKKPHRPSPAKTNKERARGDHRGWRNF

SGC-7901 = assay: Growth inhibition of human SGC-7901 cells incubated for 3 days by MTT assay; format: functional; conditions: SGC-7901, 72 h, time 3 day
Ephrin type-A receptor 7 = Ephrin type-A receptor 7 (Homo sapiens, UniProt Q15375); assay: Inhibition of recombinant human EphA7 (613 to 909 residues) using KTFCGTPEYLAPEVRREPRILSEEEQEMFRDFDYIADWC as substrate incubated for 40 mins in presence of [gamma-33ATP] by scintillation counting based radiometry assay
[9] = biological target: MAP kinase-interacting serine/threonine-protein kinase 2 (Homo sapiens, UniProt Q9HBH9); assay: Inhibition of recombinant human MNK2 using myelin basic protein as substrate incubated for 40 mins in presence of [gamma-33ATP by scintillation counting based radiometry assay
Sequence of MAP kinase-interacting serine/threonine-protein kinase 2 (Q9HBH9 whole entry): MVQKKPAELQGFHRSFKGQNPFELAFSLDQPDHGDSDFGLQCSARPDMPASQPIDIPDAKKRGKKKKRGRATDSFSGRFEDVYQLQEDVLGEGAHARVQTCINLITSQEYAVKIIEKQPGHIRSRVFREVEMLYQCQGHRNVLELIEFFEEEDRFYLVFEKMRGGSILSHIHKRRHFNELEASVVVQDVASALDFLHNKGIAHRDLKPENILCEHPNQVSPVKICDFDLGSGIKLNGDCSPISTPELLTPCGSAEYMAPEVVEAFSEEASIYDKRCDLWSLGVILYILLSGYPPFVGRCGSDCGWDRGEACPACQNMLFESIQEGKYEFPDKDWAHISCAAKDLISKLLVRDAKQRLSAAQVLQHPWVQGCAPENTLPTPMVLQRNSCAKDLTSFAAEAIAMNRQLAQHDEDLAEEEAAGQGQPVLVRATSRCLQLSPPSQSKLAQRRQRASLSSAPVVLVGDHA

BaF3 = assay: Growth inhibition of mouse BaF3 cells harboring RET M918T mutant incubated for 3 days by MTT assay; format: functional; conditions: BaF3, 72 h, time 3 day
[10] = biological target: Tyrosine-protein kinase FRK (Homo sapiens, UniProt P42685); assay: Inhibition of recombinant human PTK5 (218 to end residues) using GGEEEEYFELVKKKK as substrate incubated for 40 mins in presence of [gamma33P]ATP by scintillation counting based radiometry assay
[11] = biological target: Proto-oncogene tyrosine-protein kinase receptor Ret (Homo sapiens, UniProt P07949, V804M)
Sequence of Proto-oncogene tyrosine-protein kinase receptor Ret (Homo sapiens, UniProt P07949, V804M) (P07949 29-1114 V804M limits assumed): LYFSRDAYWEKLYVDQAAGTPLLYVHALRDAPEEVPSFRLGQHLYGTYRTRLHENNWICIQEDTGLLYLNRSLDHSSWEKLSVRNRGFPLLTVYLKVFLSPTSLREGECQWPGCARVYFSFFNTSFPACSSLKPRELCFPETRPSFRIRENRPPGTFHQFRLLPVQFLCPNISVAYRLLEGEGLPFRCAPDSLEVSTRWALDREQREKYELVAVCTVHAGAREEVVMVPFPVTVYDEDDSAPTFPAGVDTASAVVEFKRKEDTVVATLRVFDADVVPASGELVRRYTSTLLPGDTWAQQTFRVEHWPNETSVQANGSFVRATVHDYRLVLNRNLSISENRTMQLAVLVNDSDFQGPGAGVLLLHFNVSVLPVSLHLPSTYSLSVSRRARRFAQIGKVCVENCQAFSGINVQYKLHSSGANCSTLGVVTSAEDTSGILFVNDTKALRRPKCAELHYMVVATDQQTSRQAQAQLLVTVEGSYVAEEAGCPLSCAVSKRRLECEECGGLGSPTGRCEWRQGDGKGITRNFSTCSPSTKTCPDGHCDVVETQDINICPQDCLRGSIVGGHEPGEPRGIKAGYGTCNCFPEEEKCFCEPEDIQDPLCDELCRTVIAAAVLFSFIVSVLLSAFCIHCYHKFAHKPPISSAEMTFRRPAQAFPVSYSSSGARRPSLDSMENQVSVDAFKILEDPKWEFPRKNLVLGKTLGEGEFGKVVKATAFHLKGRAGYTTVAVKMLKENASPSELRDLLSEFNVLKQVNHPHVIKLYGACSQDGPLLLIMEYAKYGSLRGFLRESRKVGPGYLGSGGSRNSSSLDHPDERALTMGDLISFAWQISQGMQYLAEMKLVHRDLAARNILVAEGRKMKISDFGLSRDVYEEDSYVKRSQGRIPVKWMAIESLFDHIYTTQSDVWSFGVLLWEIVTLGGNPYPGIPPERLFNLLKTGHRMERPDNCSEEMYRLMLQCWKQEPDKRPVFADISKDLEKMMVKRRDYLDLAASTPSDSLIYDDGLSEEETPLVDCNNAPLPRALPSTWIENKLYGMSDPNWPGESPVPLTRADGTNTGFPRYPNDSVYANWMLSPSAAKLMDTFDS

[12] = biological target: Fibroblast growth factor receptor 1 (Homo sapiens, UniProt P11362)
[13] = biological target: Serine/threonine-protein kinase B-raf (Homo sapiens, UniProt P15056); assay: Inhibition of recombinant full length human B-Raf (416 to end residues) using myelin basic protein substrate incubated for 40 mins in presence of [gamma-33ATP] by scintillation counting based radiometry assay
Sequence of Serine/threonine-protein kinase B-raf (P15056 whole entry): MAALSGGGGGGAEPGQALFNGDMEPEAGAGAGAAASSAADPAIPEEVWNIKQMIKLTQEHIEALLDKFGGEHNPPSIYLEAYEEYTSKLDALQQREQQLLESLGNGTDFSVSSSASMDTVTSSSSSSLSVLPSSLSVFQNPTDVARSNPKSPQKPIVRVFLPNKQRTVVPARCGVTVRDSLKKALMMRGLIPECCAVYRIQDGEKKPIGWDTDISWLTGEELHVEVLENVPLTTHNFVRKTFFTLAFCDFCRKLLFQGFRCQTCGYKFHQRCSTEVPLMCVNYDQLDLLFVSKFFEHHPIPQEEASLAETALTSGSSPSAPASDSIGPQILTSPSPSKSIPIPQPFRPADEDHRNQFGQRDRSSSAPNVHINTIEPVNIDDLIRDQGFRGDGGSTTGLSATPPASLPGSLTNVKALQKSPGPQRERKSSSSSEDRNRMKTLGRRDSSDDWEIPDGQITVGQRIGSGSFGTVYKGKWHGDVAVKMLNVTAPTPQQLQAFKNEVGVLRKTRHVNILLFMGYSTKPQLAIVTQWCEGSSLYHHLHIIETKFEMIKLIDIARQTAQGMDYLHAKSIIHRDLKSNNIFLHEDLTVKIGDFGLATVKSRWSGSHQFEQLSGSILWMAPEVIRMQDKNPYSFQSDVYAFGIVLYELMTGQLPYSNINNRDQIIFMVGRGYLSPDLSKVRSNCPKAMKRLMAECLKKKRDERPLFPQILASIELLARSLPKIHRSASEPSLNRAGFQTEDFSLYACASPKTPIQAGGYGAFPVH

[14] = biological target: High affinity nerve growth factor receptor (Homo sapiens, UniProt P04629)
Angiopoietin-1 receptor = Angiopoietin-1 receptor (Homo sapiens, UniProt Q02763); assay: Inhibition of recombinant human TIE2 (771 to end residues) using poly(Glu, Tyr) 4:1 as substrate incubated for 40 mins in presence of [gamma33P]ATP by scintillation counting based radiometry assay
[15] = biological target: Mitogen-activated protein kinase kinase kinase 7 (Homo sapiens, UniProt O43318); assay: Inhibition of recombinant human TAK1 (1 to 303 residues) using casein as substrate incubated for 40 mins in presence of [gamma33P]ATP by scintillation counting based radiometry assay
Mus musculus = species: Mus musculus; conditions: NOD-SCID, dose 30.0 mg/kg, time 18.0 day
Ephrin type-B receptor 1 = Ephrin type-B receptor 1 (Homo sapiens, UniProt P54762); assay: Inhibition of recombinant human EphB1 (564 to end residues) using KVEKIGEGTYGVVYK as substrate incubated for 40 mins in presence of [gamma-33ATP] by scintillation counting based radiometry assay
SK-MEL-1 = assay: Growth inhibition of human SK-MEL-1 cells incubated for 3 days by MTT assay; format: functional; conditions: SK-MEL-1, 72 h, time 3 day
[16] = biological target: Casein kinase I isoform delta (Homo sapiens, UniProt P48730); assay: Inhibition of recombinant human CK1delta (1 to 294 residues) using KRRRALS(p)VASLPGL as substrate incubated for 40 mins in presence of [gamma-33ATP] by scintillation counting based radiometry assay
[17] = biological target: Proto-oncogene tyrosine-protein kinase receptor Ret (Homo sapiens, UniProt P07949)
[18] = biological target: Vascular endothelial growth factor receptor 1 (Homo sapiens, UniProt P17948)
[19] = Growth inhibition of human C643 cells incubated for 3 days by MTT assay; format: functional; conditions: C643, 72 h, time 3 day
[20] = Growth inhibition of mouse L929 cells incubated for 3 days by MTT assay; format: cell-based; conditions: time 3 day
Ramos = assay: Growth inhibition of human Ramos cells incubated for 3 days by MTT assay; format: functional; conditions: 72 h, time 3 day
[21] = biological target: Serine/threonine-protein kinase TAO2 (Homo sapiens, UniProt Q9UL54); assay: Inhibition of recombinant human TAO2 (1 to 320 residues) using myelin basic protein as substrate incubated for 40 mins in presence of [gamma33P]ATP by scintillation counting based radiometry assay
Ephrin type-B receptor 2 = Ephrin type-B receptor 2 (Homo sapiens, UniProt P29323); assay: Inhibition of recombinant human EphB2 (560 to end residues) using poly(Glu, Tyr) 4:1 as substrate incubated for 40 mins in presence of [gamma-33ATP] by scintillation counting based radiometry assay
[22] = biological target: Platelet-derived growth factor receptor beta (Homo sapiens, UniProt P09619); assay: Inhibition of human PDGFRbeta (557 to end residues) using poly(Glu, Tyr) 4:1 as substrate measured after 40 mins in presence of [gamma33P]ATP by scintillation counting based radiometry assay
[23] = Volume of distribution at steady state in Sprague-Dawley rat at 10 mg/kg, po measured upto 24 hrs by LC-MS/MS analysis; format: ADME, organism-based; conditions: in vivo

## CC(C)(C)c1cc(NC(=O)Nc2ccc(Nc3ncnc4c3OCCCN4)cc2)no1
[1]
  GI50: > 10000 nM
[2]
  IC50: 221 nM
[3]
  GI50: 80 nM
[4]
  IC50: 708 nM
[5]
  IC50: 1490 nM
[6]
  IC50: 1260 nM
[7]
  IC50: 494 nM
[8]
  IC50: 19 nM
SGC-7901
  GI50: 7280 nM
Ephrin type-A receptor 7
  IC50: 199 nM
[9]
  IC50: 136 nM
BaF3
  GI50: 870 nM
[10]
  IC50: 51 nM
[11]
  IC50: 15 nM
[12]
  IC50: 868 nM
[13]
  IC50: 957 nM
[14]
  IC50: 71 nM
Angiopoietin-1 receptor
  IC50: 408 nM
[15]
  IC50: 484 nM
Mus musculus
  inhibition: Active
Ephrin type-B receptor 1
  IC50: 388 nM
SK-MEL-1
  GI50: > 10000 nM
[16]
  IC50: 509 nM
[17]
  IC50: 10 nM
[18]
  IC50: 8 nM
[19]
  GI50: > 10000 nM
[20]
  GI50 at 72 h: > 10000 nM
Ramos
  GI50: > 10000 nM
[21]
  IC50: 903 nM
Ephrin type-B receptor 2
  IC50: 1090 nM
[22]
  IC50: 686 nM
[23]
  Vdss: 0.05 L/kg
